Results as given in the CheMixHub viscosity set.
± gives the uncertainty stated by the source.

Assay: xn = mol fraction of the nth substance listed

CCOc1ccccc1 + CN(C)C=O
viscosity [mPa·s], 101.33 kPa
Conditions	x1 = 0.031	x1 = 0.091	x1 = 0.153	x1 = 0.223	x1 = 0.304	x1 = 0.463	x1 = 0.556	x1 = 0.642	x1 = 0.8
298 K	0.815 ± 0.017	0.839 ± 0.018	0.862 ± 0.018	0.889 ± 0.019	0.919 ± 0.02	0.978 ± 0.021	1.012 ± 0.022	1.042 ± 0.022	1.097 ± 0.024
303 K	0.769 ± 0.017	0.788 ± 0.017	0.808 ± 0.017	0.831 ± 0.018	0.857 ± 0.018	0.907 ± 0.019	0.936 ± 0.02	0.963 ± 0.021	1.01 ± 0.022
308 K	0.73 ± 0.016	0.747 ± 0.016	0.763 ± 0.016	0.783 ± 0.017	0.804 ± 0.017	0.847 ± 0.018	0.871 ± 0.019	0.893 ± 0.019	0.933 ± 0.02

OCC(O)CO + CN(C)C=O
viscosity [mPa·s], 101 kPa
Conditions	x1 = 0.105	x1 = 0.209	x1 = 0.312	x1 = 0.414	x1 = 0.514	x1 = 0.613	x1 = 0.712	x1 = 0.809	x1 = 0.905
303.15 K	1.5 ± 0.03	2.41 ± 0.04	4.22 ± 0.07	7.36 ± 0.12	14.2 ± 0.2	19.9 ± 0.3	64.6 ± 1.1	127.5 ± 3.3	258.7 ± 10
318.15 K	1.24 ± 0.02	1.84 ± 0.03	2.91 ± 0.05	4.77 ± 0.08	8.35 ± 0.14	–	27.3 ± 0.4	50.5 ± 0.8	91.1 ± 1.8

CCCCCCCCn1cc[n+](C)c1.[Cl-] + CO
298.15 K, 101 kPa
Conditions	viscosity [mPa·s]
x2 = 0.0565	10350 ± 4800
x2 = 0.1686	3456 ± 1300
x2 = 0.3525	534 ± 110

CCOC(C)=O + CO
viscosity [mPa·s]
Conditions	293.15 K	298.15 K	303.15 K	308.15 K	313.15 K	318.15 K	323.15 K
100 kPa, x2 = 0.4071	0.4216 ± 0.0067	0.4015 ± 0.0067	0.384 ± 0.0066	0.365 ± 0.0066	0.3527 ± 0.0066	0.3431 ± 0.0065	0.3216 ± 0.0065
100 kPa, x2 = 0.6468	0.4612 ± 0.0068	0.4319 ± 0.0068	0.4112 ± 0.0067	0.3868 ± 0.0067	0.3681 ± 0.0066	0.3501 ± 0.0066	0.3336 ± 0.0065
100 kPa, x2 = 0.8048	0.499 ± 0.007	0.4697 ± 0.0069	0.4463 ± 0.0068	0.4182 ± 0.0067	0.3988 ± 0.0067	0.3758 ± 0.0066	0.3564 ± 0.0066
100 kPa, x2 = 0.9168	0.5454 ± 0.0071	0.5164 ± 0.007	0.4893 ± 0.0069	0.4559 ± 0.0068	0.4327 ± 0.0068	0.4083 ± 0.0067	0.3858 ± 0.0066
101 kPa, x1 = 0.065	0.549 ± 0.011	–	0.477 ± 0.01	–	0.424 ± 0.009	–	0.378 ± 0.008
101 kPa, x1 = 0.115	0.528 ± 0.011	–	0.462 ± 0.01	–	0.413 ± 0.009	–	0.368 ± 0.008
101 kPa, x1 = 0.306	0.475 ± 0.01	–	0.422 ± 0.009	–	0.377 ± 0.008	–	0.342 ± 0.008
101 kPa, x1 = 0.321	0.471 ± 0.01	–	0.418 ± 0.009	–	0.376 ± 0.008	–	0.341 ± 0.008
101 kPa, x1 = 0.445	–	–	–	–	0.364 ± 0.008	–	0.333 ± 0.007
101 kPa, x1 = 0.598	0.444 ± 0.009	–	0.397 ± 0.009	–	0.36 ± 0.008	–	0.328 ± 0.007
101 kPa, x1 = 0.797	–	–	–	–	0.362 ± 0.008	–	0.332 ± 0.007
